In patent publication US5075449A, “Method of optically resolving (±)-1-(3-pyridylcarbonyl)-5-methyl-2-pyrazoline” (Mitsui Toatsu Chemicals, Inc., priority 1988, dated 1991):

Tests used:
rats = test: Acute toxicity (LD50), intravenous, rat; format: in vivo; conditions: for Acute toxicity LD50: mortality up to 72 hours after administration, 4320 min
Protocol: (§1) The drug was intraveneously administered to rats and determined the mortality ratio up to 72 hours after the administration, to calculate 50% lethal dose (LD50) by acute toxicity according to the routine method.

[1] = system: cerebral edema caused by the occlusion of rat middle cerebral artery; test: Suppression of ischemic cerebral edema caused by occlusion of middle cerebral artery in rat; format: in vivo, Rat (male Sprague Dawley); conditions: rat MCA occlusion; for Suppression ratio of cerebral edema: i.v. infusion through caudal vein 3 or 10 mg/kg/hr for 24 hours (dose not given), brain water content at 24 hours, * P < 0.05, ** P < 0.001 to control
Protocol: (§2) Rat middle cerebral artery was occluded according to the method of Tamura et. al. (J. Cerebral Blood Flow and Metabolism, 53-60, 1981).
Male Sprague Dawley rats, aged 8 to 10 weeks, were occluded of their left middle cerebral artery under 2% halothane anesthesia. (-)-1-(3-Pyridylcarbonyl)-5-methyl-2-pyrazoline dissolved in 0.9% physiological saline was infused into rats through the caudal vein at a rate of 3 or 10 mg/kg/hr for 24 hours. Rats were sacrificed to death 24 hours after the occlusion of the middle cerebral artery and brain was excised from each rat to determine the water contents in the two cerebral hemispheres, left and right, by the wet and dry weighing method. The occlusion of middle cerebral artery was also conducted on the control group of rats, and they were subsequently infused with 0.9% physiological saline for 24 hours similarly in the drug-administered group. The suppressive ratio of cerebral edema was determined by the following equation. [formula] Cl: Water contents in left cerebral hemisphere of control group CR: Water contents in right cerebral hemisphere of control group
SL: Water contents in left cerebral hemisphere of drug-administered group
SR: Water contents in right cerebral hemisphere of drug-administered group

[2] = system: infarcted lesions caused by the occlusion of middle cerebral artery in rat; test: Effect on cerebral ischemic (infarcted) lesions caused by occlusion of middle cerebral artery in rat; format: in vivo, Rat (male Sprague Dawley); conditions: rat MCA occlusion; for Infarcted lesions (ratio of infarcted lesions to total area) / Reduction ratio of infarcted lesions: i.v. infusion 10 mg/kg/hr for 24 hours; for Infarcted lesions (ratio of infarcted lesions to total area): TTC staining, control group 16.1, * P < 0.05, ** P < 0.001 to control; for Reduction ratio of infarcted lesions: infarcted lesions of control group defined as 100%
Protocol: as §2
Male Sprague Dawley rats, aged 8 to 10 weeks, were occluded of their left middle cerebral artery under 2% halothane anesthesia. (-)-1-(3-Pyridylcarbonyl)-5-methyl-2-pyrazoline dissolved in 0.9% physiological saline was infused into rats through the caudal vein at a rate of 10 mg/kg/hr for 24 hours. A control group was intraveneously infused with 0.9% physiological saline for 24 hours. Rats were sacrificed to death 24 hours after the occlusion of the middle cerebral artery and brain was excised from each rat. After staining with TTC, the excised brain was cut in 6 identical parts from its top. Cross sections were photographed to measure the ratio of infarcted lesions to total area with a planimeter so that the reduction ratio of infarcted lesions by the drug administration was calculated, provided that the infarcted lesions of the control group was defined as 100%.

[3] = Acute toxicity (LD50), intravenous, rat; format: in vivo; conditions: in vivo, iv, mortality up to 72 hours after administration
Protocol: as §1

[4] = literature: Anesthesiology, 47, 285, 1977; Nippon Rinsho, 43, 185, 1985; cited from earlier work

SMILES	Acute toxicity LD50 (rats)	Suppression ratio of cerebral edema [1]	Effect on infarcted area (in words) ([2]; 10 mg/kg/hr for 24 hours)	Infarcted lesions (ratio of infarcted lesions to total area) [2]	Reduction ratio of infarcted lesions [2]	Acute toxicity (in words) (rats)	Effect on cerebral edema (in words) [1]	LD50 at 72 h [3]	Brain protective action / suppression of cerebral edema (in words) [4]
CC1CC=NN1C(=O)c1cccnc1 (single isomer, unassigned; (+)) [(+)-form, (+)-1-(3-Pyridylcarbonyl)-5-methyl-2-pyrazoline]	400 mg/kg	15.7%	–	–	–	–	–	–	–
CC1CC=NN1C(=O)c1cccnc1 (single isomer, unassigned; (-)) [(-)-form, (-)-1-(3-Pyridylcarbonyl)-5-methyl-2-pyrazoline]	1200 mg/kg	28.4%	significantly reduced the infarcted area caused by the occlusion of rat middle cerebral artery and it acted more strongly than the racemic modification	8.5%	48.9	less than that of the racemic modification or (+)-form	significantly depressed cerebral edema caused by the occlusion of the middle cerebral artery in rats and it acted more strongly than the racemic modification or (+)-form	–	–
CC1CC=NN1C(=O)c1cccnc1 (racemic) [Racemic modification, (±)-1-(3-Pyridylcarbonyl)-5-methyl-2-pyrazoline]	–	18.7%	–	11.0%	32.0	–	–	800 mg/kg	–
CCCC(C)C1(CC)C(=O)NC(=O)NC1=O (centres unmarked) [pentobarbital]	–	–	–	–	–	–	–	–	protective action of brain against cerebral ischemia
